From paper PMC8560925, “Inhibition of Clostridium difficile TcdA and TcdB toxins with transition state analogues” (Nature Communications, 2021)
Where “and” joins values, the source holds several entries; their conditions need not be identical. Equal entries are not always repeated. Structures can show the parent of a compound that is named as a salt. Where two headings read alike, the source gives them in different places.

Tests used:
TcdB-GTD [1] = target: T1, TcdB-GTD (Clostridioides difficile, UniProt P18177); assay: biochemical; type: biochemical, Clostridium difficile
T1 construct: C-terminal His-6 tagged TcdB-GTD (amino acids 1-546); His6 (C); made in house; host or cells: Escherichia coli One Shot BL21 Star (DE3)
T1 sequence (P18177 1-546 limits assumed): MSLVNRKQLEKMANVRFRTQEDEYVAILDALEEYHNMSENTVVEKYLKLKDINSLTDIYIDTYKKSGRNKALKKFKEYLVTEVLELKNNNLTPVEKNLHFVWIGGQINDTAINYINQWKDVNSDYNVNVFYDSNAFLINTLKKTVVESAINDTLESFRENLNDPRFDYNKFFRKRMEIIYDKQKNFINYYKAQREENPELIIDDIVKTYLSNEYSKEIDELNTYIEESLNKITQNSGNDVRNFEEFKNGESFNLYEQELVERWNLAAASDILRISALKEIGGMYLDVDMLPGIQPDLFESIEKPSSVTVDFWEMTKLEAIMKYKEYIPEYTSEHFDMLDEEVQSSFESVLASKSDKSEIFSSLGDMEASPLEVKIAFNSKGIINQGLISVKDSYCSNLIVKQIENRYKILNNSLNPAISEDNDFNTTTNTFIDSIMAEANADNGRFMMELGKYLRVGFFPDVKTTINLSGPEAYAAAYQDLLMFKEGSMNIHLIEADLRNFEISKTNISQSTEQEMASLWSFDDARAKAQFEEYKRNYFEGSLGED

TcdB-GTD [2] = target: T1, TcdB-GTD; assay: biochemical; set-up: species or system Clostridium difficile
TcdB-GTD [3] = conditions: cited from earlier work
C. sordelli lethal toxin = conditions: cited from earlier work
[4] = set-up: method as in Khanna et al, FEBS journal, 2010, vol 277, p 1618; conditions: after administration; ref Khanna et al, FEBS journal, 2010, vol 277, p 1618; cited from earlier work
[5] = test system: TcdA-induced apoptosis of HT-29 cells; type: cell-based
cell lines = assay: Cell toxicity of the iminosugars in the cell lines used; type: cell-based; conditions: high treatment concentrations
[6] = test system: Rac1 glucosylation by TcdA in IMR90 cells; assay: Western blot analysis of Rac1 glucosylation in IMR90 cells, TcdA; type: cell-based, human; conditions: 12.5–100 µM iminosugar, 1 nM TcdA, 6 h
Protocol: (§1) IMR90 cells were grown in EMEM with 10% FBS in 24-well plates inoculated at 50,000 cells/well. […] Next, TcdA (1 nM final) or TcdB (0.1 nM final) was added to each well and cells were incubated at 37 °C, 5% CO2 for 6 h. The cells were lysed with mammalian cell lysis buffer (Abcam) according to manufacturer’s instructions. Cell lysates (2 µg) were heated at 95 °C in XT-loading dye (Bio-rad) before being loaded on an SDS polyacrylamide gel. Following electrophoresis, samples were transferred to PVDF membrane using an iblot2 device (ThermoFisher), blocked with 1% milk in PBS 0.1% Tween 20 for 1 h at room temperature and probed with a 1/4000 dilution of anti-Rac1 (Mab102, Thermo Fisher) and 1/8000 of anti-GAPDH antibody (Abcam) for 1 h at room temperature. Following incubation with the primary antibody, the membrane was washed 3 times with PBS with 0.1% Tween20 and incubated with a 1/40,000 dilution of secondary antibody for 1 h. Following incubation with the secondary antibody, the membrane was washed 3 times in PBS 0.1% tween 20 before a final wash in PBS. […]

[7] = test system: TcdA-induced cell rounding of Vero cells; assay: cells; type: cell-based; conditions: Chlorocebus sabaeus, 2 h, read-out: Calculated IC50 cell rounding
[8] = test system: Rac1 glucosylation by TcdB in IMR90 cells; assay: Western blot analysis of Rac1 glucosylation in IMR90 cells, TcdB; type: cell-based, human; conditions: 12.5–100 µM iminosugar, 0.1 nM TcdB, 6 h
Protocol: as §1

TcdB-GTD [9] = target: T1, TcdB-GTD; type: binding, Clostridium difficile
[10] = target: T2, TcdB-GTD in the presence of UDP (Clostridioides difficile, UniProt P18177); assay: biochemical; type: binding, Clostridium difficile; conditions: for Kd: ITC, 1 mM UDP
T2 construct: C-terminal His-6 tagged TcdB-GTD (amino acids 1-546); His6 (C); made in house; host or cells: Escherichia coli One Shot BL21 Star (DE3)
T2 sequence (P18177 1-546 limits assumed): as above

[11] = test system: TcdB-induced cell rounding of IMR90 cells; type: cell-based, human
[12] = test system: TcdA-induced cell rounding of IMR90 cells; type: cell-based, human
Gaucher disease patients = test system: Gaucher disease patients; set-up: method as in NCTs: 00433147; 00446550; 00813865; 00875160; conditions: ref NCTs: 00433147, 00446550, 00813865, 00875160, cited from earlier work
[13] = test system: TcdB-induced cell rounding of Vero cells; assay: cells; type: cell-based; conditions: Chlorocebus sabaeus, 1.5 h, read-out: Calculated IC50 cell rounding
TcdA-GTD = target: T3, TcdA-GTD (Clostridioides difficile, UniProt P16154); assay: biochemical; type: biochemical, Clostridium difficile
T3 construct: TcdA-GTD (amino acids 1–542); His6 (C); made in house; host or cells: E. coli One shot BL21 Star (DE3)
T3 sequence (P16154 1-542): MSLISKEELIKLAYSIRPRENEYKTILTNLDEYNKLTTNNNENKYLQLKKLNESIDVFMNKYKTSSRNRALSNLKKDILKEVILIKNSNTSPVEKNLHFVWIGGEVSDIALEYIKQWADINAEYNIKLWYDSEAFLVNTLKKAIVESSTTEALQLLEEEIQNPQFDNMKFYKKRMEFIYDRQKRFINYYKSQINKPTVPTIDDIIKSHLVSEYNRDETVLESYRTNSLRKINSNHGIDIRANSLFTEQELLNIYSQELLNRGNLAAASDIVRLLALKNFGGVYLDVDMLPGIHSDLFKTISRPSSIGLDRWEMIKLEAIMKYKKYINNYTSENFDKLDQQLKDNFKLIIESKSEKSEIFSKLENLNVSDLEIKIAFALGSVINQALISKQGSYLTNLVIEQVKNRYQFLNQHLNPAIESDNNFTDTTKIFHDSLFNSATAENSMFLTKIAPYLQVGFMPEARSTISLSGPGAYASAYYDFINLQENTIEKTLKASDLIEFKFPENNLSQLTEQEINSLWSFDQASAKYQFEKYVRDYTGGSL

[14] = Ki TcdB-GTD glucosyltransferase activity
[15] = Ki TcdB-GTD glucohydrolase activity
[16] = Ki TcdB-GTD glucosyltransferase activity, fixed concentration of UDP at 2 x Ki UDP
[17] = Ki TcdA-GTD glucosyltransferase activity
[18] = Ki TcdA-GTD glucosyltransferase activity, fixed concentration of UDP at 2 x Ki UDP

`OC[C@@H]1[C@@H](O)[C@H](O)[C@H]2[C@@H](O)CCN21` [Australine HCl, australine hydrochloride] gave a remaining activity at 500 µM (TcdB-GTD [1]; read-out: % enzyme activity) of 73.4%, a remaining activity at 1000 µM (TcdB-GTD [1]; read-out: % enzyme activity) of 45.1% and a remaining activity at 2000 µM (TcdB-GTD [1]; read-out: % enzyme activity) of 21.8%. It also gave a remaining activity at 4000 µM (TcdB-GTD [1]; read-out: % enzyme activity) of 0%, a remaining activity at […] (TcdB-GTD [1]; read-out: % enzyme activity) of 100% and a Ki (TcdB-GTD [1]; read-out: Ki TcdB-GTD glucosyltransferase activity) of 1570 ± 430 µM. The Ki (TcdB-GTD [2]; read-out: Ki TcdB-GTD GH activity, no inhibition) was > 10000 µM and the Ki (TcdB-GTD [2]; read-out: Ki TcdB-GTD glucohydrolase activity) was > 10000 µM.

In the case of `O[C@H]1[C@H](O)[C@@H](O)CN2CC[C@H](O)[C@H]12` [Castanospermine], the Ki (TcdB-GTD [1]; [14]) is reported as 680 ± 20 µM, the remaining activity at 1000 µM (TcdB-GTD [1]; read-out: % enzyme activity) is reported as 25.9% and the remaining activity at 4000 µM (TcdB-GTD [1]; read-out: % enzyme activity) is reported as 0%. The IC50 (TcdB-GTD [3]) was ~400 µM, the IC50 (C. sordelli lethal toxin) was ~100 µM and the Ki (TcdB-GTD [2]; [15]) was 3400 ± 200 µM.

In the case of `OC[C@H]1NC[C@H](O)[C@@H](O)[C@@H]1O` [Deoxynojirimycin], the “Inhibition of TcdB-GTD GT activity” value (TcdB-GTD [1]) is reported as “did not inhibit”, the Ki (TcdB-GTD [1]; [14]) is reported as > 10000 µM and the “Inhibition of TcdB-GTD GH activity” value (TcdB-GTD [2]) is reported as “did not inhibit”. The Ki (TcdB-GTD [2]; [15]) was > 10000 µM.

For `O=C1O[C@H](CO)[C@@H](O)[C@H](O)[C@H]1O` [Gluconolactone, D-gluconon-1,5-lactone], the Ki (TcdB-GTD [1]; [14]) was 440 µM and the Ki (TcdB-GTD [2]; [15]) was 414 µM.

For `OC[C@H]1OC(O)[C@H](O)[C@@H](O)[C@@H]1O` (stereo partly shown) [Glucose], the Inhibition (TcdB-GTD [1]) is listed as “no significant inhibition” and the “Inhibition of TcdB-GTD” value (TcdB-GTD [3]; ref 42 (numbering of the author response)) is listed as “no significant inhibition”.

For `OC[C@H]1CNC[C@@H](O)[C@@H]1O` [Isofagomine], the “Time to maximal levels in plasma, liver, spleen and brain” value [4] is listed as ≤ 1 h, the “Effect on TcdA-induced apoptosis (Annexin V)” value [5] is listed as “prevented apoptosis” and the “Mode of inhibition versus UDP-glucose” value (TcdB-GTD [1]) is listed as “uncompetitive”. The “fold improvement of inhibitory affinity in the presence of UDP” value (TcdB-GTD [1]) was 2.4 fold, the Ki (TcdB-GTD [1]; [14]) was 1.4 ± 0.1 µM and the Ki (TcdB-GTD [1]; [16]) was 0.29 ± 0.06 µM. It also gave a remaining activity at 0.015 µM (TcdB-GTD [1]; read-out: % enzyme activity) of 99.7%, a remaining activity at 0.061 µM (TcdB-GTD [1]; read-out: % enzyme activity) of 100% and a remaining activity at 0.24 µM (TcdB-GTD [1]; read-out: % enzyme activity) of 88.2%. For the same compound, the remaining activity at 0.48 µM (TcdB-GTD [1]; read-out: % enzyme activity) was 95.9%, the remaining activity at 1.95 µM (TcdB-GTD [1]; read-out: % enzyme activity) was 72% and the remaining activity at 3.9 µM (TcdB-GTD [1]; read-out: % enzyme activity) was 37.8%. It also gave a remaining activity at 3.906 µM (TcdB-GTD [1]; read-out: % enzyme activity) of 15.8%, a remaining activity at 7.81 µM (TcdB-GTD [1]; read-out: % enzyme activity) of 19.7% and a remaining activity at 15.62 µM (TcdB-GTD [1]; read-out: % enzyme activity) of 8.07%. For the same compound, the remaining activity at […] (TcdB-GTD [1]; read-out: % enzyme activity) was 87.8% and 80.5% and 43.4%, the Cell toxicity (cell lines) was “no cell toxicity” and the “Unglucosylated Rac1 (Mab102) versus total Rac1” value [6] was “dose-dependent reappearance of unglucosylated Rac1”. The IC50 [7] was 5.5 ± 1.5 µM, the “Unglucosylated Rac1 (Mab102) versus total Rac1” value [8] was “dose-dependent reappearance of unglucosylated Rac1” and the “Binding to TcdB-GTD alone (ITC)” value (TcdB-GTD [9]) was “no significant binding”. The ΔH [10] was -43.1 ± 0.42 kJ/mol, the “−TΔS” value [10] was 2.1 ± 0.84 kJ/mol and the Kd [10] was 0.067 µM and 0.0669 µM. The “Effect on toxin-induced cell rounding” value [11] was “prevented”, the Ki (TcdB-GTD [2]; [15]) was 4.8 ± 0.2 µM and the “Effect on toxin-induced cell rounding” value [12] was “prevented”. For the same compound, the “Tolerability of oral doses” value (Gaucher disease patients; 225 mg/day oral, Gaucher patients) was “well tolerated”, the “Reduction in Gaucher disease symptoms” value (Gaucher disease patients; majority of patients) was “did not show a significant reduction” and the IC50 [13] was 8.3 ± 3.6 µM. For the same compound, the “Mode of inhibition versus UDP-glucose” value (TcdA-GTD) was “uncompetitive inhibition”, the “fold improvement of inhibition constant for TcdA-GTD relative to TcdB-GTD” value (TcdA-GTD) was 5.8 fold and the “fold improvement of inhibition constant in the presence of UDP” value (TcdA-GTD) was 15 fold. For the same compound, the Ki (TcdA-GTD; [17]) was 0.24 ± 0.01 µM and the Ki (TcdA-GTD; [18]) was 0.016 ± 0.002 µM.

With `OC[C@H]1CNC(O)[C@@H](O)[C@@H]1O` (stereo partly shown) [Noeuromycin] the “Effect on TcdA-induced apoptosis (Annexin V)” value [5] was “prevented apoptosis”, the “Mode of inhibition versus UDP-glucose” value (TcdB-GTD [1]) was “uncompetitive” and the “fold improvement of inhibitory affinity in the presence of UDP” value (TcdB-GTD [1]) was 4.8 fold. For the same compound, the “fold less potent than isofagomine” value (TcdB-GTD [1]) was 7.6 fold, the Ki (TcdB-GTD [1]; [14]) was 10.6 ± 1 µM and the Ki (TcdB-GTD [1]; [16]) was 4.4 ± 0.1 µM. For the same compound, the Cell toxicity (cell lines) was “no cell toxicity”, the “Unglucosylated Rac1 (Mab102) versus total Rac1” value [6] was “dose-dependent reappearance of unglucosylated Rac1” and the IC50 [7] was 9.6 ± 3.3 µM. For the same compound, the “Unglucosylated Rac1 (Mab102) versus total Rac1” value [8] was “dose-dependent reappearance of unglucosylated Rac1”, the “Binding to TcdB-GTD alone (ITC)” value (TcdB-GTD [9]) was “no significant binding” and the ΔH [10] was -21.8 ± 0.42 kJ/mol. For the same compound, the “−TΔS” value [10] was 17.6 ± 1.3 kJ/mol, the Kd [10] was 0.18 µM and the “Effect on toxin-induced cell rounding” value [11] was “prevented”. For the same compound, the Ki (TcdB-GTD [2]; [15]) was 12 ± 1.6 µM, the “Effect on toxin-induced cell rounding” value [12] was “prevented” and the IC50 [13] was 13.6 ± 5.6 µM. The “fold improvement of inhibition constant for TcdA-GTD relative to TcdB-GTD” value (TcdA-GTD) was 2.3 fold, the “fold improvement of inhibition constant in the presence of UDP” value (TcdA-GTD) was 23 fold and the Ki (TcdA-GTD; Ki TcdA-GTD GT activity, fixed concentration of UDP at 2 x Ki UDP) was 0.21 ± 0.05 µM. The Ki (TcdA-GTD; [17]) was 4.7 ± 0.2 µM and the Ki (TcdA-GTD; [18]) was 0.214 ± 0.055 µM.

For `O[C@H]1[C@H]2[C@H](O)CCCN2C[C@H]1O` [Swainsonine], the Ki (TcdB-GTD [1]; Ki TcdB-GTD GT activity) was > 10000 µM, the Ki (TcdB-GTD [1]; [14]) was > 10000 µM and the Ki (TcdB-GTD [2]; Ki TcdB-GTD GH activity) was > 10000 µM. For the same compound, the Ki (TcdB-GTD [2]; [15]) was > 10000 µM.

With `O.O=c1ccn([C@@H]2O[C@H](COP(=O)([O-])OP(=O)([O-])O)[C@@H](O)[C@H]2O)c(=O)[nH]1.[Na+].[Na+]` [UDP, Uridine 5’diphosphate disodium salt hydrate] the “Mode of inhibition versus UDP-glucose” value (TcdB-GTD [1]) was “competitive inhibition”, the remaining activity at 4.84 µM (TcdB-GTD [1]; read-out: % enzyme activity) was 86.1% and the remaining activity at 19.37 µM (TcdB-GTD [1]; read-out: % enzyme activity) was 65.3%. For the same compound, the remaining activity at 78 µM (TcdB-GTD [1]; read-out: % enzyme activity) was 19.7%, the remaining activity at […] (TcdB-GTD [1]; read-out: % enzyme activity) was 99.1% and the ΔH (TcdB-GTD [9]) was -59.8 ± 16.3 kJ/mol. For the same compound, the “−TΔS” value (TcdB-GTD [9]) was 34.3 ± 15.9 kJ/mol.
